Among the test systems are SF-295 CNS; HOP-92 NSCLC; MALME-3M melanoma; OVCAR-5 ovarian; T-47D breast; SK-OV-3 ovarian; SN12C renal; BT-549 breast; LOX IMVI melanoma; EKVX NSCLC.
Holding throughout (test): NCI tumour cell line growth inhibition, 48 h

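Each compound was tested at five concentrations against cells in 96-well plates for 48 hours. TGI is the concentration that stops growth completely.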

This note sets out measurements from PubChem BioAssay (NCI).

As to `N#CCN(CC#N)C1CC=CCC1N(CC#N)CC#N` (stereo not given), the TGI in the assay on SF-295 CNS, with HOP-92 NSCLC, in the assay on MALME-3M melanoma, in the assay with OVCAR-5 ovarian, with T-47D breast and in the assay on SK-OV-3 ovarian was above 100 µM in each case. For the same molecule, the TGI with SN12C renal, in the assay with BT-549 breast, in the assay on LOX IMVI melanoma and with EKVX NSCLC was above 100 µM in each case.
In the case of `NC(Cc1ncccn1)C(=O)O` (stereo not given), the TGI in the assay with SF-295 CNS, with HOP-92 NSCLC, in the assay on MALME-3M melanoma, with OVCAR-5 ovarian, with T-47D breast and in the assay on SK-OV-3 ovarian was above 100 µM in each case. Besides, the TGI with SN12C renal, with BT-549 breast, in the assay with LOX IMVI melanoma and in the assay on EKVX NSCLC was above 100 µM throughout.
As to `O=S(=O)(/N=C(\NO)Nc1ccc(Cl)cc1)c1ccccc1`, the TGI with SF-295 CNS is above 100 µM; in the assay on HOP-92 NSCLC it was 22.4 µM; in the assay with MALME-3M melanoma it was 22.5 µM; in the assay with OVCAR-5 ovarian it was 56.6 µM; with T-47D breast it was above 83.3 µM; in the assay on SK-OV-3 ovarian it was above 100 µM. Besides, the TGI is 35.2 µM in the assay with SN12C renal, 33.7 µM in the assay on BT-549 breast, 33.6 µM in the assay on LOX IMVI melanoma and 26.1 µM in the assay on EKVX NSCLC.
As for `c1ccc2c(c1)ccn1ccc3c4ccccc4nc-3c21`, the TGI was 2.03 µM with SF-295 CNS; 4.44 µM with HOP-92 NSCLC; 2.01 µM with MALME-3M melanoma; 2.36 µM in the assay with OVCAR-5 ovarian; 3.51 µM in the assay on T-47D breast; 2.9 µM with SK-OV-3 ovarian. For the same molecule, the TGI with SN12C renal stood at 2.1 µM; in the assay with BT-549 breast it was 3.82 µM; with LOX IMVI melanoma, 1.48 µM; in the assay on EKVX NSCLC, 1.13 µM.
Turning to `CCCN1C(=O)/C(=C\c2ccc(OC)c(OC)c2)SC1=Nc1ccccc1`, the TGI with SF-295 CNS, in the assay with HOP-92 NSCLC, with MALME-3M melanoma, in the assay on OVCAR-5 ovarian, in the assay with T-47D breast and with SK-OV-3 ovarian was above 100 µM throughout. Also, the TGI in the assay with SN12C renal, with BT-549 breast, in the assay on LOX IMVI melanoma and in the assay on EKVX NSCLC was above 100 µM each time.
Turning to `CC[C@H](C)C1=C(O)[N@+]2([O-])Oc3ccc(-c4c(O)c(O)c(-c5ccc(O)cc5)c(OC(C)=O)c4OC(C)=O)cc3O[C@]2([C@@H](C)CC)C(=O)N1O`, the TGI was above 50 µM in the assay with SF-295 CNS; 32.1 µM in the assay on HOP-92 NSCLC; above 50 µM with MALME-3M melanoma; above 50 µM in the assay with OVCAR-5 ovarian; above 50 µM in the assay with T-47D breast; 48 µM in the assay with SK-OV-3 ovarian. The TGI with SN12C renal, in the assay on BT-549 breast, with LOX IMVI melanoma and with EKVX NSCLC was above 50 µM throughout.
In the case of `COP(=O)(OC)/C(=C/c1cn(C(c2ccccc2)(c2ccccc2)c2ccccc2)cn1)NC=O`, the TGI in the assay on SF-295 CNS is 30.5 µM; in the assay with HOP-92 NSCLC it was 68 µM; in the assay with MALME-3M melanoma, 38.5 µM; in the assay on OVCAR-5 ovarian, 38.2 µM; in the assay with T-47D breast, above 100 µM; with SK-OV-3 ovarian it was 90.8 µM. The TGI in the assay on SN12C renal is 46.4 µM; in the assay on BT-549 breast, 30.6 µM; with LOX IMVI melanoma, 32.5 µM; in the assay with EKVX NSCLC, 56.9 µM.
For `CCOC(=O)C(O)(C(=O)OCC)c1cc(C(C)(C)C)c(O)c(C(C)(C)C)c1`, the TGI with SF-295 CNS was 52.5 µM; in the assay on HOP-92 NSCLC it was above 100 µM; in the assay with MALME-3M melanoma, above 100 µM; with OVCAR-5 ovarian, above 100 µM; in the assay on T-47D breast, above 100 µM; in the assay on SK-OV-3 ovarian, above 100 µM. Besides, the TGI in the assay on SN12C renal, in the assay with BT-549 breast, in the assay on LOX IMVI melanoma and with EKVX NSCLC was above 100 µM throughout.
For `Cc1cccc2c(N)c3cccc(C(=O)NCC[N+]4(Cc5ccc([N+](=O)[O-])cc5)CCOCC4)c3nc12`, the TGI in the assay on SF-295 CNS was above 100 µM; in the assay with HOP-92 NSCLC, 71.8 µM; with MALME-3M melanoma, above 100 µM; in the assay with OVCAR-5 ovarian it was above 100 µM; with T-47D breast it was 98.3 µM; in the assay on SK-OV-3 ovarian, above 100 µM. Also, the TGI with SN12C renal, in the assay with BT-549 breast, in the assay on LOX IMVI melanoma and in the assay with EKVX NSCLC was above 100 µM each time.
For the molecule `CSc1c(CC(=O)Nc2ccc(Cl)cc2)n(Cc2ccccc2)c2ccccc12`, the TGI with SF-295 CNS was above 100 µM; in the assay with HOP-92 NSCLC, 42.8 µM; with MALME-3M melanoma, above 100 µM; with OVCAR-5 ovarian, above 100 µM; with T-47D breast it was above 100 µM; with SK-OV-3 ovarian, above 100 µM. In addition, the TGI in the assay on SN12C renal was above 100 µM; in the assay on BT-549 breast, 46.9 µM; in the assay with LOX IMVI melanoma it was above 100 µM; in the assay with EKVX NSCLC, above 100 µM.
With `O=C(Nc1sccc1S(=O)(=O)c1ccccc1)c1ccccc1`, the TGI with SF-295 CNS, in the assay with HOP-92 NSCLC, in the assay with MALME-3M melanoma, in the assay on OVCAR-5 ovarian, in the assay on T-47D breast and with SK-OV-3 ovarian was above 100 µM in each case. In addition, the TGI with SN12C renal, in the assay on BT-549 breast, in the assay on LOX IMVI melanoma and in the assay with EKVX NSCLC was above 100 µM throughout.
For `CC(C)(C)C1=CC(=C2C=Cc3ccccc3O2)C=C(C(C)(C)C)C1=O`, the TGI in the assay with SF-295 CNS is 18.9 µM; in the assay on HOP-92 NSCLC, above 51 µM; in the assay with MALME-3M melanoma, 14.5 µM; in the assay with OVCAR-5 ovarian, 15.3 µM; with T-47D breast, 9.97 µM; in the assay with SK-OV-3 ovarian it was above 42.4 µM. Besides, the TGI in the assay with SN12C renal worked out at 15.3 µM; in the assay on BT-549 breast it was 22.1 µM; in the assay with LOX IMVI melanoma, 12.9 µM; in the assay with EKVX NSCLC it was 43.6 µM.
On to `Nc1ccc(-c2nc3ccccc3s2)cc1C#Cc1ccccc1`, for which the TGI with SF-295 CNS is 47.1 µM; in the assay on HOP-92 NSCLC, 52.8 µM; with MALME-3M melanoma, 28.5 µM; with OVCAR-5 ovarian it was 54.5 µM; with T-47D breast, above 100 µM; with SK-OV-3 ovarian, 60.7 µM. Moreover, the TGI worked out at 37.1 µM in the assay with SN12C renal, 34.7 µM in the assay on BT-549 breast, 36 µM in the assay with LOX IMVI melanoma and 39.8 µM in the assay on EKVX NSCLC.
Consider `COc1ccc2c3c1OC1C34CCN(C)C(C2)C4=CC(I)C1(OC)OC` (stereo not given), for which the TGI was above 100 µM with SF-295 CNS; 24.5 µM in the assay on HOP-92 NSCLC; 21.9 µM with MALME-3M melanoma; 38.4 µM with OVCAR-5 ovarian; 48.8 µM in the assay on T-47D breast; 28.9 µM in the assay with SK-OV-3 ovarian. The TGI with SN12C renal was 18.9 µM; in the assay on BT-549 breast, 36.2 µM; in the assay on LOX IMVI melanoma it was 23.9 µM; in the assay on EKVX NSCLC it was 33.8 µM.
With `CCOC(=O)C(C)c1nc2ccc(C(F)(F)F)cc2[nH]c1=O` (stereo not given), the TGI in the assay on SF-295 CNS was above 100 µM; in the assay with HOP-92 NSCLC, above 100 µM; in the assay with MALME-3M melanoma it was above 100 µM; in the assay on OVCAR-5 ovarian it was above 100 µM; in the assay on T-47D breast, 69.9 µM; in the assay with SK-OV-3 ovarian it was above 100 µM. Besides, the TGI with SN12C renal, with BT-549 breast, in the assay with LOX IMVI melanoma and in the assay on EKVX NSCLC was above 100 µM each time.
On to `O=[N+]([O-])/C(C(Cl)=C(Cl)Cl)=C(\N1CCCCC1)n1nnc2ccccc21`, for which the TGI in the assay with SF-295 CNS is 33.3 µM; in the assay on HOP-92 NSCLC it was 39.6 µM; in the assay with MALME-3M melanoma, 39.6 µM; with OVCAR-5 ovarian, 36.9 µM; with T-47D breast, above 100 µM; in the assay with SK-OV-3 ovarian it was 68.2 µM. Moreover, the TGI amounted to 33.7 µM in the assay with SN12C renal, 49.4 µM with BT-549 breast, 31.7 µM in the assay on LOX IMVI melanoma and 26.4 µM with EKVX NSCLC.
For `Cc1ccc2[nH]c3[nH]c(=S)[nH]c(=O)c3c2c1`, the TGI in the assay with SF-295 CNS, with HOP-92 NSCLC, in the assay with MALME-3M melanoma, in the assay with OVCAR-5 ovarian, in the assay on T-47D breast and with SK-OV-3 ovarian was above 100 µM in each case. For the same molecule, the TGI with SN12C renal, in the assay on BT-549 breast, with LOX IMVI melanoma and in the assay on EKVX NSCLC was above 100 µM each time.
For the molecule `C=CCCCCOC1C=CC(O)C(CO)O1` (stereo not given), the TGI in the assay with SF-295 CNS, in the assay with HOP-92 NSCLC, in the assay with MALME-3M melanoma, with OVCAR-5 ovarian, with T-47D breast and in the assay with SK-OV-3 ovarian was above 100 µM throughout. The TGI with SN12C renal, in the assay with BT-549 breast, in the assay with LOX IMVI melanoma and in the assay with EKVX NSCLC was above 100 µM throughout.
